Experiments:
[1] = tested on: NQO1; test: NQO1 assay in murine hepatoma Hepa1c1c7 cells; type: cell-based; conditions: for inducer activity for NQO1: concentrations up to 20 μM; for CD value (concentration required to double the specific activity of NQO1): 48 hours exposure
Experimental: (§1) Cells (10,000 per well) were grown in 96-well plates for 24 hours, then exposed to serial dilutions of inducers for 48 hours, and lysed in 0.08% digitonin. Enzymatic activity of NQ01 in cell lysates was determined with menadione as a substrate (Anal Biochem 169: 328-336 (1988), Methods Enzymol 382(B): 243-258 (2004)). The concentrations required to double the specific activity of NQO1 (CD values) were used to quantify inducer potency.

[2] = tested on: NF-κB; test: LPS-induced NF-κB luciferase reporter in U937 3×κB-LUC cells; type: cell-based, human; conditions: LPS 10 ng/ml; for effect on LPS-activated NF-κB by itself: 6 hours, exemestane up to 30 μM; for effect on the inhibitory effect of sulforaphane on NF-κB activation: combined with sulforaphane
Experimental: Human monocytic U937-3×κB-LUC cells were transferred to medium with 2% heat-inactivated FBS in 24-well plates (1×10^6 cells/well) and incubated overnight. Then cells were incubated with exemestane, sulforaphane, combination of both compounds, or vehicle control for 30 minutes, and exposed to LPS (10 ng/ml). After an additional 6-hour incubation, cells were harvested and NF-κB-driven luciferase activity was assayed according to the manufacturer's instructions (Promega, Madison, Wis.). Luciferase activity was normalized to total protein concentration to compensate for possible cell toxicity of the compounds.

[3] = tested on: RAW264.7 cells; test: Cytotoxicity in RAW264.7 cells; type: cell-based, murine; conditions: RAW264.7, 20 μM
[4] = tested on: iNOS; test: LPS-activated iNOS (NO production, Griess reaction) in RAW264.7 cells; type: cell-based, murine; conditions: for inhibition of LPS-stimulated NO production: RAW264.7, up to 20 μM; for IC50: Mus musculus, RAW264.7, 10 ng/ml LPS, 48 h, read-out: IC50 of NO generation
Experimental: RAW264.7 cells (20,000 per well) in 96-well plates, were grown for 24 hours, and exposed to serial dilutions of exemestane in the presence of 10 ng/ml LPS. […] The nitrite values of cells treated with LPS but without test compounds were used as controls.

[5] = tested on: Hepa1c1c7 cells; test: Cytotoxicity in Hepa1c1c7 cells; type: cell-based, murine; conditions: 20 μM
[6] = tested on: 308 keratinocytes; test: UVA-stimulated ROS production in murine 308 keratinocytes; type: cell-based; conditions: 24 hours pretreatment, 5 or 10 J/cm^2 UVA
Experimental: (§2) ARPE-19 or MEF cells (10,000 per well) in 96-well plates (black-walled wells with clear bottom) were treated with serial dilutions of exemestane for 24 hours, and then incubated with 20 μM H2DCFDA for 30 minutes (Chem Res Toxicol 5: 227-231(1992)). After washing with Dulbecco's phosphate-buffered saline (DPBS) twice, the cells were challenged with 500 μM tert-butyl hydroperoxide for 30 minutes, and fluorescence intensity was measured in SpectraMax GeminiEM plate reader (Molecular Devices) with excitation at 485 nm and emission at 530 nm. Murine 308 keratinocytes (40,000 per well) were plated in 24-well plates and grown for 24 hours. Medium was then replaced with medium containing different concentrations of exemestane (0, 2, 4, 8 μM). After further incubation for 24 hours, cells were incubated with 20 μM H2DCFDA for 30 minutes, washed twice with DPBS twice and exposed to 5 or 10 J/cm^2 UVA (340-400 nm). Immediately after UVA irradiation, fluorescence intensity was measured by a microplate reader.

[7] = tested on: NQO1; test: NQO1 induction in mouse skin by topical application; type: in vivo, SKH-1 hairless mice; conditions: three applications at 24-hour intervals
Experimental: Eleven-month-old female SKH-1 hairless mice (n=5) purchased from Charles River Laboratories were treated three times at 24-hour intervals on the backs with 0, 1 and 2 μmol of exemestane dissolved in 80% aqueous acetone (40 μL) over about a 2.0 cm^2 area. Mice were euthanized 24 hours after the final dose. Each treated segment of the dorsal skin was harvested, pulverized in liquid N2, and homogenized in 10 volumes of 0.25 M sucrose in 10 mM Tris buffer (pH 7.4). After three freeze-thaw cycles, the homogenates were centrifuged at 14,000 rpm and 4° C. for 30 minutes, and the supernatant fractions were analyzed for protein concentration and NQO1 activity. All animal experiments were in compliance with National Institutes of Health Guidelines and were approved by The Johns Hopkins University Animal Care and Use Committee.

[8] = tested on: NQO1; test: NQO1 assay in human retinal pigment epithelial ARPE-19 cells; type: cell-based; conditions: 48 hours exposure
Experimental: as §1

[9] = tested on: NQO1; test: NQO1 assay in Nrf2-knockout MEF; type: cell-based, mouse; conditions: 48 hours
Experimental: as §1

[10] = tested on: NQO1; test: NQO1 assay in murine 308 keratinocytes; type: cell-based; conditions: 308 cells, 48 hours exposure
Experimental: as §1

[11] = tested on: Hepa1c1c7, ARPE-19, 308 and H9c2 cells; test: Cytotoxicity in all cell lines of the NQO1 assay (Hepa1c1c7, ARPE-19, 308, H9c2); type: cell-based; conditions: up to 20 μM, the highest concentration tested
[12] = tested on: H9c2 cells; test: Hypoxia/reoxygenation injury in H9c2 cardiomyocytes (MTT); type: cell-based, rat; conditions: H9c2, 24 hours pretreatment, 10 μM
Experimental: (§3) ARPE-19 cells (10,000 cells/well) in 96-well plates were treated with serial dilutions of exemestane for 24 hours, and exposed to tert-butyl hydroperoxide or 4-hydroxynonenal in serum-free medium for 4 hours. The cells were then incubated in serum-free medium for additional 20 hours, washed with DPBS, and cell viability was determined using the colorimetric procedure based on the reduction of a water-soluble tetrazolium salt, 3-(4,5-dimethylthiazo-2-yl)-2,5-diphenyltetrazolium bromide (MTT). H9c2 cells (10,000 cells/well) in 96-well plates were treated with a range of concentrations of exemestane. After 24 hours, the cells were washed with DPBS, and exposed to 2 mM Na2S2O4 in serum-free medium for 1 hour. The cells were then washed with DPBS and incubated in complete medium containing 10% FBS for 24 hours, and then cell viability was measured by the MTT assay.

[13] = tested on: breast cancer; conditions: 4560 women at moderately increased risk for developing breast cancer; cited from earlier work
[14] = tested on: iNOS; test: LPS-activated iNOS (NO production) in wild-type mouse peritoneal macrophages; type: cell-based; conditions: Peritoneal macrophage, single agent, 100 ng/ml LPS, 24 hours, read-out: concentration required for 50% inhibition of LPS-stimulated nitric oxide generation
Experimental: (§4) Nrf2−/− mice on C57BL/6 background were initially established by Itoh et al. WT C57BL/6 mice were purchased from The Jackson Laboratory. Macrophages were harvested by lavage from the peritoneal cavity with DPBS 4 days after an i.p. injection of thioglycolate broth (Brewer, 4%). Isolated cells were plated into 96-well plates at a density of 10^5 cells per well in RPMI 1640 medium containing 2 mM Lglutamine, 10% heat-inactivated FBS, 100 U/ml […]. After 3 hours of incubation at 37° C. in 5% CO2. nonmacrophage cells were washed away with DPBS. The remaining macrophages were exposed immediately to serial dilutions of exemestane, sulforaphane or a combination of both compounds in the presence of 100 ng/ml LPS, and incubated for 24 hours before measurement of iNOS.
(§5) RAW264.7 cells (20,000 per well) in 96-well plates, were grown for 24 hours, and exposed to serial dilutions of exemestane in the presence of 10 ng/ml LPS. After 48-hour incubation, nitrite concentration in culture supernatant fractions of RAW264.7 cells or mouse peritoneal macrophages, measured as an indicator of iNOS induction, was determined by the Griess reaction (Cancer Res 58: 717-723 (1998), Proc Natl Acad Sci USA 105: 15926-15931 (2008)). The nitrite values of cells treated with LPS but without test compounds were used as controls.

[15] = tested on: NQO1; test: NQO1 assay in rat H9c2 myocardiocytes; type: cell-based; conditions: H9c2 cells, 48 hours exposure
Experimental: as §1

[16] = tested on: Nrf2-/- MEF cells; test: ROS in Nrf2-/- MEF challenged with tert-butyl hydroperoxide; type: cell-based, mouse; conditions: 24 hours pretreatment
Experimental: as §2

[17] = tested on: WT MEF cells; test: ROS in wild-type MEF challenged with tert-butyl hydroperoxide; type: cell-based, mouse; conditions: 24 hours pretreatment
Experimental: as §2

[18] = tested on: iNOS; test: LPS-activated iNOS (NO production) in Nrf2-/- mouse peritoneal macrophages; type: cell-based; conditions: LPS 100 ng/ml, 24 hours
Experimental: as §4, §5

[19] = tested on: NQO1; test: NQO1 assay in wild-type MEF; type: cell-based, mouse; conditions: 48 hours
Experimental: as §1

[20] = tested on: NQO1; test: Real-time PCR of NQO1 mRNA in H9c2 cells; type: cell-based, rat; conditions: 10 μM, 6 hours
Experimental: (§6) Total mRNA from cells was extracted with TRIzol reagent (Invitrogen, Carlsbad, Calif.). […] was synthesized by the iScript cDNA Synthesis Kit (Bio-Rad Laboratories, Inc., Hercules, Calif.). Quantitative real-time PCR analysis was performed using the 7000 Sequence Detection System (Applied Biosystems, Foster City, Calif.). All primers were optimized and a final primer concentration of 300 nM was used for all reactions. Primer sequences for gene amplification were as follows: NAD(P)H: quinone oxidoreductase 1 (NQO1): fwd 5′-[…]-3′ (SEQ ID NO: 1), rev 5′-[…]-3′ (SEQ ID NO: 2); heme oxygenase-1 (HO-1): fwd 5′-[…]-3′ (SEQ ID NO: 3), rev 5′-[…]-3′ (SEQ ID NO: 4). (3-actin (endogenous control): fwd 5′-[…]-3′ (SEQ ID NO: 5), rev 5′-catcllllcacggttggcctta-3′ (SEQ ID NO: 6). The reactions were assembled using 5 ng of cDNA, 1× Power SYBR Green PCR Master Mix (Life Technologies), forward and reverse primers, and nuclease-free water. Relative mRNA expression was normalized to β-actin. Gene expression was calculated using the comparative 2^−ΔΔCT method.

[21] = tested on: ARPE-19 cells; test: Cytotoxicity of oxidative stresses in ARPE-19 cells (MTT); type: cell-based, human; conditions: ARPE-19, 24 hours pretreatment 0-20 μM
Experimental: as §3

[22] = tested on: ARPE-19 cells; test: Intracellular ROS in ARPE-19 cells challenged with tert-butyl hydroperoxide; type: cell-based, human; conditions: ARPE-19, 24 hours pretreatment, 500 μM tert-butyl hydroperoxide
Experimental: as §2

[23] = tested on: heme oxygenase-1 (HO-1); test: Real-time PCR of HO-1 mRNA in H9c2 cells; type: cell-based, rat; conditions: 10 μM, 6 hours
Experimental: as §6

| Compound | inducer activity for NQO1 [1] | effect on LPS-activated NF-κB by itself [2] | effect on the inhibitory effect of sulforaphane on NF-κB activation [2] | toxicity [3] | inhibition of LPS-stimulated NO production [4] | CD value (concentration required to double the specific activity of NQO1) [1] [µM] | CD value (concentration required to double the specific activity of NQO1) [8] [µM] | NQO1 activity [9] | CD value (concentration required to double the specific activity of NQO1) [10] [µM] | IC50 [14] [nM] | CD value (concentration required to double the specific activity of NQO1) [15] [µM] | NQO1 activity [19] | IC50 [4] [nM] | further results |
| --- | --- | --- | --- | --- | --- | --- | --- | --- | --- | --- | --- | --- | --- | --- |
| N#Cc1ccc(C(c2ccc(C#N)cc2)n2cncn2)cc1 [letrozole] | no inducer activity | no effect | did not enhance | no toxicity | did not inhibit |  |  |  |  |  |  |  |  |  |
| CC/C(=C(\c1ccccc1)c1ccc(OCCN(C)C)cc1)c1ccccc1 [tamoxifen] | did not induce NQO1 activity |  |  |  | did not inhibit |  |  |  |  |  |  |  |  | cytotoxicity [3]: 50%; cytotoxicity [5]: about 90% |
| C=C1C[C@@H]2[C@H](CC[C@]3(C)C(=O)CC[C@@H]23)[C@@]2(C)C=CC(=O)C=C12 [Exemestane, 6-methyleneandrosta-1,4-diene-3,17-dione] |  | no effect | dramatically enhanced | no toxicity |  | 0.65 | 2.2 | not affected | 0.65 | 24200 | 2.9 | dose-dependently induced NQO1 activity | 2500 | ROS in UVA-irradiated cells [6]: dose-dependently led to the reduction of ROS; elevation of NQO1 activity in homogenates of skin ([7]; 0.5 μmol/cm^2 per application): 1.3 fold; elevation of NQO1 activity in homogenates of skin ([7]; 1.0 μmol/cm^2 per application): 1.7 fold; cytotoxicity [11]: no cytotoxicity; cell viability after hypoxia/reoxygenation [12]: almost totally restored cell viability; reduction of the risk of breast cancer relative to placebo [13]: 65%; protection against tert-butyl hydroperoxide-stimulated ROS [16]: no protection; tert-butyl hydroperoxide-stimulated ROS levels [17]: clearly suppressed; inhibition of LPS-stimulated NO production in Nrf2-/- compared with WT macrophages [18]: much less effective inhibitor; increase in NQO1 mRNA expression over control cells [20]: 3 fold; protection against cytotoxicity of tert-butyl hydroperoxide ([21]; oxidant 0.2, 0.4, 0.8 mM for 4 hours): protected against cytotoxicity; protection against cytotoxicity of 4-hydroxynonenal ([21]; oxidant 10, 20, 40 μM for 4 hours): protected against cytotoxicity; ROS production stimulated by tert-butyl hydroperoxide [22]: suppressed ROS production; increase in mRNA levels of HO-1 over control cells [23]: greater than 8 fold |
| C[S+]([O-])CCCCN=C=S (stereo not drawn) [sulforaphane, R,S-sulforaphane] |  |  |  |  |  | 0.2 | 0.7 | not affected | 0.2 | 1500 | 0.9 | dose-dependently induced NQO1 activity | 500 |  |
